The series can be described thus: GHS categories as the set defines them, by LD50: 1 up to 5, 2 up to 50, 3 up to 300, 4 up to 2000, 5 above 2000 mg/kg. To be noted: rat; in vivo; po.

Where a SMILES comes first, the peptide text is derived from it. [ ]: non-standard residue; d: D form. pGlu = O=C1CC[C@@H](C(=O)O)N1; Thz = O=C(O)[C@@H]1CSCN1

Turning to `N#CC(C(=O)OCC(COC(=O)C(C#N)=C(c1ccccc1)c1ccccc1)(COC(=O)C(C#N)=C(c1ccccc1)c1ccccc1)COC(=O)C(C#N)=C(c1ccccc1)c1ccccc1)=C(c1ccccc1)c1ccccc1`, the GHS category is listed as 5.

With `Oc1c(Br)ccc2c(O)c(Br)ccc12`, the GHS category amounted to 5.

Turning to `C=C(C)CCCC(C)CCOC(=O)CC` (stereo not given), the GHS category was 5.

In turn, `CCCCCCCCOC=O` displayed a GHS category of 5.

`O=C(O)CC(=O)C(=O)O`: the GHS category turned out to be 5.

On to `CCCCCCCCCCCCCCCCCCOP(=O)(O)O`, for which the GHS category is listed as 5.

As for `CCCCOC(=O)Cc1ccccc1`, the GHS category turned out to be 5.

On to `CC(C)Cc1ccc(OP(=O)(Oc2ccc(CC(C)C)cc2)Oc2ccc(CC(C)C)cc2)cc1`, for which the GHS category is 5.

In turn, `Cc1ncc(CSSCc2cnc(C)c(O)c2CN)c(CN)c1O` registered a GHS category of 5.

Turning to `CC(C)COC(=O)OCN1C(=O)CN(CCN2CC(=O)N(COC(=O)OCC(C)C)C(=O)C2)CC1=O`, the GHS category worked out at 5.

`CC(=O)CC(=O)Nc1ccc(S(=O)(=O)O)cc1` showed a GHS category of 5.

The compound `CCCCCCCCCCCCCC(=O)N[C@@H](CCC(=O)O)C(=O)O` showed a GHS category of 5.

In the case of `Cc1[nH]c2ccc(O)cc2c1CC(=O)OCC(=O)O`, the GHS category worked out at 5.

`CC(C)=CCC/C(C)=C/COC(=O)C(C)C` displayed a GHS category of 5.

`CC1CC(OC(=O)C(Oc2ccc(Cl)cc2)C(C)C)CC(C)(C)C1` (stereo not given) registered a GHS category of 5.

As to `CC1(C)S[C@@H]2[C@H](NC(=O)C(N)c3ccccc3)C(=O)N2[C@H]1C(=O)OC1OC(=O)c2ccccc21` (stereo not given in full), the GHS category turned out to be 4.

`O=C1COc2cc(C(=O)c3ccc(Cl)cc3)ccc2N1` gave a GHS category of 5.

With `COc1ccccc1OCCNCC(O)c1ccc(C)c(S(N)(=O)=O)c1` (stereo not given), the GHS category turned out to be 5.

As to `NNC(=O)CCCCC(=O)NN`, the GHS category came to 5.

In turn, `Cc1cc(S(=O)(=O)O)c(/N=N/c2c(O)c(C(=O)O)cc3ccccc23)cc1Cl` displayed a GHS category of 5.

As to `CCO[Si](C)(OCC)OCC`, the GHS category is recorded as 5.

In the case of `C=Cc1ccc(O)c(C=C)c1`, the GHS category was determined as 5.

In turn, `CCCCC(CC)COC(=O)CCCCCCCC(=O)OCC(CC)CCCC` (stereo not given) displayed a GHS category of 5.

`Cc1c(C)c2c(c(C)c1OC(=O)c1cccnc1)CC[C@@](C)(CCC[C@H](C)CCC[C@H](C)CCCC(C)C)O2` (racemic) came in with a GHS category of 5.

In turn, `O=C1CCc2c(cccc2OCCCN2CCC(O)(c3ccccc3)CC2)N1` gave a GHS category of 4.

In turn, `CC(CO)CCCC1CCCCC1` (stereo not given) registered a GHS category of 5.

As for `COc1ccc(OC)c(C(O)CNC(=O)CN)c1` (stereo not given), the GHS category is given as 2.

Compound `COc1ccc2c(c1)CCN(c1ccccc1)C2c1ccc(Cl)cc1` (stereo not given) yielded a GHS category of 4.

The compound `COC(=O)C(C)CCC(=O)N(C)C` (stereo not given) registered a GHS category of 5.

`CC(CC=O)c1ccccc1` (stereo not given) registered a GHS category of 5.

Compound `CN(C)c1ccc(NC(=O)CCCSc2nnnn2C)cc1` returned a GHS category of 4.

Compound `C=C1CC[C@H]2O[C@]2(C)CC[C@@H]2[C@@H]1CC2(C)C` returned a GHS category of 5.

For `CC(=O)N(CC(O)CO)c1c(I)c(C(=O)NCC(O)CO)c(I)c(C(=O)NCC(O)CO)c1I` (stereo not given), the GHS category amounted to 5.

On to `CN(CCCN1c2ccccc2CCc2ccccc21)CC(=O)c1ccc(Cl)cc1`, for which the GHS category was 4.

For `CCCCOC(=O)c1ccc(-n2nc(OCCN(CC)CC)c3ccccc32)cc1`, the GHS category worked out at 4.

Regarding `Cc1ccc(Nc2ccc(Nc3ccc(C)cc3S(=O)(=O)O)c3c2C(=O)c2ccccc2C3=O)c(S(=O)(=O)O)c1`, the GHS category was 5.

Consider `CCCCCCCCCCCCOC(=O)C=CC(=O)OCCCCCCCCCCCC`, for which the GHS category is listed as 5.

On to `CC[C@H]1OC(=O)C[C@@H](O)[C@H](C)[C@@H](O[C@@H]2O[C@H](C)[C@@H](O[C@H]3C[C@@](C)(O)[C@@H](O)[C@H](C)O3)[C@H](N(C)C)[C@H]2O)[C@@H](CC=O)C[C@@H](C)C(=O)C=CC(C)=C[C@@H]1CO[C@@H]1O[C@H](C)[C@@H](O)[C@@H](OC)[C@H]1OC`, for which the GHS category is 5.

As for `COc1ccccc1N1CCN(CC(O)COc2cccc3ccccc23)CC1` (stereo not given), the GHS category was 5.

`CCOC(C)(C)CC` yielded a GHS category of 5.

The compound `CCOC(=O)C(SP(=S)(OC)OC)C(SP(=S)(OC)OC)C(=O)OCC` (stereo not given) had a GHS category of 4.

Turning to `CCN(C)c1cc(=O)c2c(ccc3ccccc32)o1`, the GHS category is given as 4.

Regarding `CC1(C)CC2(CC(C)(C)N1)OC1(CCCCCCCCCCC1)NC2=O`, the GHS category is 5.

As to `CC(C)CCCCCCCOCCC#N`, the GHS category was 5.

In turn, `CCCc1c(Cc2ccc(-c3ccccc3-c3nn[nH]n3)cc2)c(=O)nc2[nH][nH]c(=O)n12` returned a GHS category of 4.

Compound `CC(=CC1C(C)=CCCC1(C)C)C(C)O` (stereo not given) displayed a GHS category of 5.

For the compound `O=C1CC(N2C(=O)c3ccccc3C2=O)CC(=O)N1CN1CCOCC1`, the GHS category is 5.

With `CC(=O)OCC1=C(C(=O)O)N2C(=O)[C@@H](N)[C@H]2SC1`, the GHS category came to 5.

The compound `CC(=O)Nc1ccc(NC(=O)c2cc3ccccc3cc2O)cc1` yielded a GHS category of 5.

The compound `COc1cnc(OC)n2nc(NS(=O)(=O)c3c(OCC(F)F)cccc3C(F)(F)F)nc12` returned a GHS category of 5.

The compound `C=C(C)C(CC=C(C)C)COC(=O)C=C(C)C` (stereo not given) showed a GHS category of 5.

`O=C(O)c1ccc2ccccc2c1`: the GHS category was determined as 5.

`Cc1cc(NC(=O)C2=C(O)c3ccccc3S(=O)(=O)N2C)no1` had a GHS category of 5.

As to `Cc1ccc(C2OC[C@@H]3OC(c4ccc(C)c(C)c4)O[C@H]([C@H](O)CO)[C@@H]3O2)cc1C` (stereo not given in full), the GHS category amounted to 5.

`N#Cc1ccccc1-c1ccc(CBr)cc1` came in with a GHS category of 5.

As for `CCCS(=O)(=O)Nc1ccc(F)c(C(=O)c2cn(C(=O)c3c(Cl)cccc3Cl)c3ncc(-c4ccc(Cl)cc4)cc23)c1F`, the GHS category is on record as 5.

`OCC(O)COc1nn(Cc2ccccc2)c2ccccc12` (stereo not given) gave a GHS category of 5.

The compound `CCOC[C@H]1CO[C@@](Cn2ccnc2)(c2cc3cc(Cl)cc(Cl)c3o2)O1` had a GHS category of 4.

The compound `CNC(=O)c1sc(-c2ccc(OC)c(OC)c2)nc1C` showed a GHS category of 5.

For the compound `COC[C@H]1CO[C@@](Cn2ccnc2)(c2cc3ccccc3o2)O1`, the GHS category was found to be 4.

On to `Cc1ccc(I)cc1Cc1ccc(-c2ccc(F)cc2)s1`, for which the GHS category is reported as 5.

`CNC(=O)c1sc(-c2ccccc2OC)nc1C` gave a GHS category of 5.

Compound `CC(=O)Nc1c(I)c(C(=O)N[C@H]2C(O)O[C@H](CO)[C@@H](O)[C@@H]2O)c(I)c(N(C)C(C)=O)c1I` (stereo not given in full) displayed a GHS category of 5.

The compound `COC(=O)CC#N` yielded a GHS category of 5.

In the case of `NC(=O)N(CO)CO`, the GHS category stood at 5.

In turn, `NC(=O)Oc1ccc(Br)cc1C(=O)Oc1ccccc1` had a GHS category of 5.

`Nc1ccc(C(=O)c2ccc(Cl)cc2)cc1O` displayed a GHS category of 5.

Compound `CC(O)CSCCCCCCCCC(C)(C)C` (stereo not given) yielded a GHS category of 5.

In turn, `CC12CCCC(O)(C1)C1CC(C)(C)C1CC2` (stereo not given) returned a GHS category of 5.

Turning to `CC(C)(C)C1=CC(=Cc2ccccc2)C=C(C(C)(C)C)C1=O`, the GHS category was 5.

Compound `CNC(=O)C(=NNc1ccc(C)cc1)C(C)=O` registered a GHS category of 5.

The compound `O=C(Nc1ccccc1-c1ccc(Cl)cc1)c1cccnc1Cl` registered a GHS category of 5.

For the compound `CC(=O)Oc1ccc(C(=C2CCCCC2)c2ccc(OC(C)=O)cc2)cc1`, the GHS category was found to be 5.

In turn, `O=C1CC[C@@H](C(=O)N2CSC[C@H]2C(=O)O)N1` ([pGlu]-[Thz]-OH) yielded a GHS category of 5.

The compound `CCOC(=O)c1ccccc1OC(N)=O` gave a GHS category of 5.

For the compound `CCN(C(=O)CCCn1nnnc1C)C1CCCCC1`, the GHS category was determined as 4.

In the case of `CC(=O)c1ccc2c(c1)OC(C)C(=O)N2C` (stereo not given), the GHS category worked out at 5.

`Nc1cc(Cl)nc(C(=O)O)c1Cl` had a GHS category of 5.

`O=S(=O)(O)c1ccc(Nc2nc(Cl)nc(Cl)n2)cc1` gave a GHS category of 5.

For the compound `CC(C)OC(=O)CCC(=O)OC(C)C`, the GHS category amounted to 5.

`CCC1(C)COC(Cn2cncn2)(c2cc3ccccc3o2)OC1` (stereo not given) showed a GHS category of 4.

As to `CC[N+](C)(CC)CCSC1=Nc2ccccc2N=C(c2ccc(Sc3ccccc3)cc2)C1`, the GHS category is reported as 5.

`CC(C)Oc1ccc2c(=O)c(-c3ccccc3)coc2c1` gave a GHS category of 5.

Take `C=CC(=O)OCC1(CC)COCOC1`: the GHS category came out at 5.

As for `O=S(=O)(O)c1cc(O)c2c(N=Nc3ccc(Nc4ccccc4)c4c(S(=O)(=O)O)cccc34)cc(S(=O)(=O)O)cc2c1`, the GHS category was 5.

Take `O=C1C2C3CC(C(Br)C3Br)C2C(=O)N1CCN1C(=O)C2C3CC(C(Br)C3Br)C2C1=O` (stereo not given): the GHS category worked out at 5.

As for `CC1(C)COC(Cn2cncn2)(c2cc3ccccc3o2)OC1`, the GHS category is on record as 4.

In turn, `C[C@@H](O)[C@H]1C(=O)N2C(C(=O)O)=C(S[C@@H]3CN[C@H](C(=O)N(C)C)C3)[C@H](C)[C@H]12` displayed a GHS category of 5.

Take `Cc1cccc(OC(=O)c2ccc(Cl)cc2OC(N)=O)c1`: the GHS category amounted to 5.

Consider `Nc1nnc(-c2cc(Cl)ccc2Cl)c(N)n1`, for which the GHS category came out at 4.

The compound `COc1ccccc1N1CCN(/C(=N\CCCO)Nc2ccccc2)CC1` gave a GHS category of 4.

Compound `CC(C)C(=O)c1ccc2cc(CC(=O)O)ccc2c1` showed a GHS category of 5.

The compound `CC(C)Cc1ccc2cc(CC(=O)O)ccc2c1` registered a GHS category of 4.

`CCOP(=S)(OCC)SSSP(=S)(OCC)OCC`: the GHS category stood at 5.

Regarding `CC(C)(C)c1ccc(N(CCN2CCCCC2)c2cccc(Cl)c2)cc1`, the GHS category came to 5.

In turn, `CCOC(=O)CCSc1cc(NC(=O)C(=O)OCC)ncn1` returned a GHS category of 4.

For the compound `CCCCCCCCCC(C)C(OC)OC` (stereo not given), the GHS category is 5.

`O=c1[nH]c(=O)n([C@H]2O[C@H](CO)[C@@H](O)[C@@H]2O)cc1/C=C\Br` registered a GHS category of 5.

For the compound `CCCCCCCCCCOC1OC(CO)C(O)C(O)C1O` (stereo not given), the GHS category is 5.

In turn, `O=C1NC(=O)C2CC=CCC12` (stereo not given) came in with a GHS category of 5.

(Values after the CATMoS acute toxicity set (Mansouri et al. 2021).)
